Key:
[1] = target: T1, Recombinant human His-MEK1 (Homo sapiens, UniProt Q02750); assay: SPR (Biacore T200) on immobilised His-MEK1; type: binding; settings: 15° C.; 20 mM HEPES, 150 mM NaCl, 5% DMSO pH 7.4
T1 construct: purchased ThermoFisher Scientific PV3303
Experimental: (§1) SPR. SPR was performed on a Biacore T200. The active and reference flow cells of a Xantec NIHMC Ni sensor chip were conditioned with 0.5M NaEDTA followed by 5 mM NiCl2 in immobilisation buffer (20 mM HEPES, 150 mM NaCl, pH 7.4). Recombinant human His-MEK1 and His-MEK2 (500 nM, ThermoFisher Scientific, cat. PV3303 and PV3615, respectively) were injected for 15 min at 10 μl min^−1 over separate active flow cells. All immobilisation was carried out at 25° C. Following immobilisation, the temperature was lowered to 15° C., and the buffer changed to 20 mM HEPES, 150 mM NaCl, 5% DMSO pH 7.4. Samples of PD98059 (2.5-30 μM in running buffer) and BT2 (1.25-15 μM) were injected at a flow rate of 30 μl min^−1 over immobilised MEK1 and MEK2. Solvent correction was applied to the data using a DMSO standard curve. Data were analysed using the Biacore T200 Evaluation software. Prior to SPR, limits of compound solubility were determined using ^1H 1D NMR.

[2] = target: T2, Recombinant human His-MEK2 (Homo sapiens, UniProt P36507); assay: SPR (Biacore T200) on immobilised His-MEK2; type: binding; settings: 15° C.; 20 mM HEPES, 150 mM NaCl, 5% DMSO pH 7.4
T2 construct: purchased ThermoFisher Scientific PV3615
Experimental: as §1

FosB/ΔFosB = assay: Western blot, serum-inducible FosB/ΔFosB expression in HMEC-1; type: cell-based, human; settings: 30 μM compound, 10% FBS 1 h
Experimental: (§2) Western blot analysis with extracts of cells treated with serum. HMEC-1 (80-90% confluency) were arrested in serum-free MCDB131 medium without EGF or hydrocortisone for 20 h. Cells were treated with 30 μM compound in serum-free MCDB131 medium for 4 h, and the medium was changed to complete medium (with 10% FBS with EGF and hydrocortisone) with 30 μM compound for 1 h. Total protein was harvested as previously described in radioimmunoprecipitation (RIPA) lysis buffer with protease inhibitors (Li, Y., et al., Int J Cardiol 220, 185-191 (2016)). Proteins were resolved on 4-20% (w/v) sodium dodecyl sulfate (SDS)-polyacrylamide gradient gels (Bio-Rad Mini-PROTEAN TGX) and transferred to Immobilon-P PVDF membranes (Millipore, USA). Membranes were blocked with 5% skim milk and incubated with rabbit monoclonal FosB (cat. 2251, 1:1000, Cell Signaling, USA), rabbit monoclonal c-Fos antibodies (cat. 2250, 1:1000, Cell Signaling, USA) at 4° C. overnight or mouse monoclonal […] antibodies (cat. A5316, 1:30000, Sigma-Aldrich) at 22° C. for 15 min then incubated with a horseradish peroxidase conjugated secondary goat anti-rabbit (cat. P0448, 1:1000, DAKO Cytomation, Denmark) or goat anti-mouse (cat. P0447, 1:1000, DAKO Cytomation, Denmark) antibodies for 1 h. Chemiluminescence was detected using the Western Lightning Chemiluminescence system (PerkinElmer, USA) and ImageQuant™ LAS 4000 biomolecular imager (GE Healthcare Life Sciences, USA). Band intensity in images generated with the LAS 4000 on automatic exposure with sensitivity/resolution setting high was quantified using NIH ImageJ.

HMEC-1 [3] = assay: Endothelial proliferation assay using the xCELLigence system; type: cell-based, human; settings: HMEC-1, 5% FBS, 79 h; for serum-inducible endothelial proliferation (xCELLigence cell index): 0.2-1 μM
Experimental: Endothelial proliferation assay using the xCELLigence system. HMEC-1 proliferation was evaluated using the xCELLigence System (Roche, Castle Hill). Briefly, HMEC-1 (5×10^3 cells/well) were seeded in a 96-well E-plate and inserted into the xCELLigence RTCA station (Roche). Cells were serum-deprived for 24 h in MCDB131 medium which contained 10 ng/ml EGF (Sigma-Aldrich) and 1 μg/ml hydrocortisone (Sigma-Aldrich) then treated with compound (0.2-1 μM) in medium containing 5% FBS, 10 ng/ml EGF (Sigma-Aldrich) and 1 μg/ml hydrocortisone (Sigma-Aldrich). Cell growth was monitored automatically every 15 min by xCELLigence system. Cell index (CI) represents a quantitative measure of each well cell growth. In this system, CI a unitless parameter that reports impedance of electron flow caused by adherent cells.

HMEC-1 [4] = assay: Endothelial repair following in vitro injury (scratch assay); type: cell-based, human; settings: 0.6 μM, 5% FBS, 48 h
Experimental: Endothelial repair following in vitro injury. HMEC-1 (90-100% confluency) in 6-well plates were washed with PBS, and treated with 0.6 μM compound in MCDB131 containing 5% FBS. A sterile pointed toothpick was used to scrape the cell monolayer and the wells photographed under 4× objective at 0 h and 48 h. Cell regrowth in the denuded zone was determined using Image-Pro Plus (Cybernetics, USA).

HMEC-1 [5] = assay: Endothelial network formation assay on Matrigel; type: cell-based, human; settings: for endothelial network (tubule) formation on Matrigel: 3 μM, 1% FBS, 50 ng/ml FGF-2, 2, 4, 6 and 24 h
Experimental: Endothelial network formation assay. HMEC-1 (4×10^4 cells/well) in MCDB131 containing 1% FBS and compound (1 or 3 μM) or curcumin (1-40 μM) and 50 ng/ml FGF-2 were added to 96-well plates coated overnight at 4° C. with 100 μl of growth factor-reduced reconstituted basement membrane matrix (Matrigel, cat. 354230, Corning, NY). Network formation was observed over subsequent hours and photographed under 4× or 10× objective using an Olympus CKX41 microscope.

BAEC = assay: Endothelial dual chamber migration assay toward VEGF-A165; type: cell-based, bovine; settings: 1 μM; Transwell; 10% FBS and 50 ng/ml VEGF-A165 in lower chamber; 24 h
Experimental: Endothelial dual chamber migration assay. BAEC (6×10^3 cells/well) suspended in DMEM supplemented with 10% FBS were seeded into the upper chamber of 24-well plates fitted with Millicell cell culture inserts (cat. PI8P01250, Millipore). After 48 h, the medium was changed to DMEM supplemented with 0.01% FBS and the cells were incubated for 48 h. Compounds prepared in DMEM containing 0.01% FBS were added to the upper chamber. VEGF-A165 (50 ng/ml, Sigma, cat. V7259) in medium containing 10% FBS was added to the lower chamber. After 24 h, medium from the upper chamber was removed and a cotton swab was used to remove non-migrated cells and excess liquid. The insert was placed in 70% ethanol for 10 min to allow cell fixation and membranes were dried for 10-15 min. Filters were excised and placed on slides. Mounting medium (Fluoroshield™ with DAPI, Sigma, cat. 6057) was added and specimens were visualized using an EVOS FL microscope.

c-Fos = assay: Western blot, serum-inducible c-Fos expression in HMEC-1; type: cell-based, human; settings: 30 μM compound, 10% FBS 1 h
Experimental: as §2

[6] = Solubility on dilution in medium containing serum; type: physicochemical; settings: dilution in medium containing serum
p-SAPK/JNK = assay: Western blot, IL-1β-inducible p-SAPK/JNK in HMEC-1; type: cell-based, human; settings: 1-30 μM
Experimental: (§3) Western blot analysis with extracts of cells treated with IL-13. HMEC-1 (80-90% confluency) were arrested in serum-free MCDB131 medium (Invitrogen, MD) without any growth factor for 48 h. Cells were treated with 30 μM compound in serum-free medium for 4 h, and incubated with 20 ng/ml IL-1β (Sigma, cat. SRE3083) in serum-free medium with the same concentration of compound for up to 4 h, unless otherwise indicated. Total protein was harvested as previously described using RIPA buffer with protease inhibitors. Proteins were resolved on 4-20% (w/v) SDS-polyacrylamide gradient gels and transferred to Immobilon-P PVDF membranes. […] Chemiluminescence was detected using the Western Lightning Chemiluminescence system and ImageQuant™ LAS 4000 biomolecular imager. Band intensity in images generated with the LAS 4000 using the same settings were quantified by NIH ImageJ.

p-p38 = assay: Western blot, IL-1β-inducible p-p38 in HMEC-1; type: cell-based, human; settings: 1-30 μM
Experimental: as §3

T1 sequence (Q02750 whole entry): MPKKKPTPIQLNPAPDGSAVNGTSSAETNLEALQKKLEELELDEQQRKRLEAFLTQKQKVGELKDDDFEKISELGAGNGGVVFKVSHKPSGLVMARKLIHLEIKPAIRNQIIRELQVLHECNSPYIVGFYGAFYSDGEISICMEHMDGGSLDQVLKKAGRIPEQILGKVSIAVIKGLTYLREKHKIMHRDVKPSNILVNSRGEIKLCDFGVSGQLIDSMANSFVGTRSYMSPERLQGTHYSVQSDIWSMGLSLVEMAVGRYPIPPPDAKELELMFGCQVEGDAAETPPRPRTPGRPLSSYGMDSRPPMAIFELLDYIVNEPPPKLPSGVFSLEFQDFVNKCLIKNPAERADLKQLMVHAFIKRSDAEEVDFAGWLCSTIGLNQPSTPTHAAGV
T2 sequence (P36507 whole entry): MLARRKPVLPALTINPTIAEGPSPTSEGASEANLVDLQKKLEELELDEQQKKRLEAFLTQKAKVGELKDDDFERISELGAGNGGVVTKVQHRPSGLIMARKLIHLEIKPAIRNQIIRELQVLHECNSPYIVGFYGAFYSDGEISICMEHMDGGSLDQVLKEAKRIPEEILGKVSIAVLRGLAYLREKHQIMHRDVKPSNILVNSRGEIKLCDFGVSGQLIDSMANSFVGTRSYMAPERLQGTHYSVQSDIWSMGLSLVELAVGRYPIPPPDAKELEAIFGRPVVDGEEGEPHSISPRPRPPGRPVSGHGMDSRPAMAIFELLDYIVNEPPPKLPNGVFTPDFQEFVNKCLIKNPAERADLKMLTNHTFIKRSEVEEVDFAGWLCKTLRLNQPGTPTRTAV

SMILES	binding to His-MEK1 (SPR) [1]	binding to His-MEK2 (SPR) [2]	serum-inducible FosB/ΔFosB expression (Western blot) (FosB/ΔFosB)	serum-inducible endothelial proliferation (xCELLigence cell index) (HMEC-1 [3])	endothelial regrowth after mechanical injury in vitro (HMEC-1 [4])	migration of BAEC toward VEGF-A165 (BAEC)	also measured
CCCN1C(=O)c2cc(NC(=O)OCC)ccc2Oc2ccccc21 [BT2-Pr, ethyl (11-oxo-10-propyl-10,11-dihydrodibenzo[b,f][1,4]oxazepin-2-yl)carbamate]	no appreciable binding	no appreciable binding	–	–	–	–	–
Nc1ccc(C(=O)c2ccc(F)cc2)cc1 [Compound T7, (4-aminophenyl)(4-fluorophenyl)methanone]	–	–	no inhibition	no inhibitory effect	no such effect	–	–
COc1cc(/C=C/C(=O)CC(=O)/C=C/c2ccc(O)c(OC)c2)ccc1O [curcumin, reference compound]	–	–	–	–	–	–	endothelial network formation (HMEC-1 [5]; 1 μM, after 4 h): no inhibition; inhibition at 30 µM (HMEC-1 [5]; Homo sapiens, 30 μM, after 4 h): ~25%; inhibition at 40 µM (HMEC-1 [5]; Homo sapiens, 40 μM, after 4 h): ~50%
Cc1ccc(NC(=O)c2ccc(CN3CCN(C)CC3)cc2)cc1Nc1nccc(-c2cccnc2)n1 [imatinib]	–	–	–	–	–	neither BT3, nor PD98059 (allosteric MEK inhibitor), imatinib (tyrosine kinase inhibitor) or tofacitinib (Janus kinase inhibitor) had an inhibitory effect	–
COC(=O)Nc1nc2ccc(C(=O)c3ccc(F)cc3)cc2[nH]1 [Compound T6, Flubendazole, reference compound]	–	–	inhibited less potently	inhibited serum-inducible proliferation at concentrations in a dose-dependent manner	blocked this reparative response	inhibited migration	serum-inducible c-Fos expression (Western blot) (c-Fos): inhibit; endothelial network (tubule) formation on Matrigel (HMEC-1 [5]): inhibited network formation
COCCOC(=O)NC(=O)Nc1ccc(C(=NO)c2ccc(Cl)cc2)cc1 [Compound T4]	–	–	inhibited less potently	inhibited serum-inducible proliferation at concentrations in a dose-dependent manner	blocked this reparative response	inhibited migration	serum-inducible c-Fos expression (Western blot) (c-Fos): inhibit; endothelial network (tubule) formation on Matrigel (HMEC-1 [5]): inhibited network formation
C[C@@H]1CCN(C(=O)CC#N)C[C@@H]1N(C)c1ncnc2[nH]ccc12 [tofacitinib]	–	–	–	–	–	neither BT3, nor PD98059 (allosteric MEK inhibitor), imatinib (tyrosine kinase inhibitor) or tofacitinib (Janus kinase inhibitor) had an inhibitory effect	–
CCN1C(=O)c2cc(NC(=O)COC)ccc2Oc2ccccc21 [BT2-MeOA, N-(10-ethyl-11-oxo-10,11-dihydrodibenzo[b,f][1,4]oxazepin-2-yl)-2-methoxyacetamide]	no appreciable binding	no appreciable binding	–	–	–	–	inhibition of serum-inducible proliferation compared with BT2 (HMEC-1 [3]; 0.4 or 0.8 μM): Neither BT2-MeOA nor any other BT2 analogue had the ability to inhibit; inhibition of network formation on Matrigel (FIG. 5B) (HMEC-1 [5]; 1 μM): Neither BT2-MeOA nor any other BT2 analogue had the ability to inhibit; solubility relative to BT2 and analogues [6]: greater solubility than BT2
COc1cccc(-c2cc(=O)c3ccccc3o2)c1N [PD98059, reference compound]	bound to both His-MEK1 and His-MEK2	bound to both His-MEK1 and His-MEK2	–	–	–	neither BT3, nor PD98059 (allosteric MEK inhibitor), imatinib (tyrosine kinase inhibitor) or tofacitinib (Janus kinase inhibitor) had an inhibitory effect	IL-1β-inducible p-SAPK/JNK (p-SAPK/JNK): no effect; IL-1β-inducible p-p38 (p-p38): no effect

From patent US20260102407A1, “TREATMENT METHODS” (priority 2020, published 2026)
